The nature of data set [1]: Metabolic stability in hepatocytes, monkey. The format is in vitro ADME. The note with it: residual ratio of unreacted substance, 1×10^6 cells/mL. How it is done:
(§1) A test solution was prepared by diluting 10 mM DMSO solution of a test substance with acetonitrile by 20 times.
(§2) Human and animal cryopreserved hepatocyte (BIOIVT; Human (IVT-X008000), Rat (IVT-M00005), Monkey (IVT-M00305), Dog (IVT-M00205)) were adjusted with William's Medium E (SIGMA; W1878) to 1×10^6 cells/mL of a cell suspension, which was then added to a 96-well plate. Then, 1% of the solution of a test substance prepared was added to the reaction system, and the metabolic reaction was initiated. At a designated time, 0.1% formic acid-acetonitrile was added thereto, and the reaction was terminated.
(§3) The sample after termination of the reaction was separated by centrifugation (1400 g, 20 min.), and then the supernatant was measured by LC/MS (UPLC-SQD (waters)) to calculate a residual ratio of unreacted substances.

Data set [2] in a line: Metabolic stability in hepatocytes, dog. The format is in vitro ADME. The note with it: residual ratio of unreacted substance, 1×10^6 cells/mL. As for the experimental part: as §1, §2, §3
Data set [3] is described as follows: Metabolic stability in hepatocytes, rat. The note with it: residual ratio of unreacted substance, 1×10^6 cells/mL. The data set is classed as in vitro ADME. As for the experimental part:
as §1, §2, §3

The test system of another data set is CYP3A4. Kind of data set: Potential for induction of CYP3A4 (Nuclear Receptor Activation Kit, DPX2 cells, reporter activity). The format is in vitro ADME. The note with it: 48 hours, % of positive control (rifampicin); for Potential for induction of CYP3A4, 3 μM: 3 μM compound; for Potential for induction of CYP3A4, 10 μM: 10 μM compound. As for the experimental part:
Potential for induction of CYP3A4 was evaluated with Nuclear Receptor Activation Kits (PURACYP; DPX2-96-002) according to protocols attached.
The following experiment was performed with substances accompanying Nuclear Receptor Activation Kits (PURACYP; DPX2-96-002).
A measurement method is specifically shown as follows. DPX2 cells were seeded on a 96-well plate and incubated with a CO2 incubator for 24 hours. […] The media on 96-well plate were removed with an aspirator 24 hours after seeding, and thereto was added the compound-supplemented medium which was prepared. CellTiter-Fluor was added to the medium 48 hours after the addition of compound, and the mixture was incubated with a CO2 incubator for 1 hour. Then, a cell viability was measured by the fluorometric method. ONE-Glo was added to the mixture, and the mixture was incubated with a CO2 incubator for 5 minutes. Then, the reporter activity was measured by luminescent determination. The induction ratio was calculated by comparing the resulting reporter activity with a DMSO control sample. % of positive control was calculated from the following equation.

A short description of data set [4]: Metabolic stability in liver microsomes, monkey. The note with it: residual ratio of unreacted substance, 0.2 mg/mL microsomes, NADPH generating system. The format is in vitro ADME. As for the experimental part:
(§4) A test solution was prepared by diluting 10 mM DMSO solution of a test substance with acetonitrile by 100 times.
(§5) Human and animal liver microsomes (SEKISUI XENOTECH; Human (H2610), Rat (R1000), Mouse (M1000), Monkey (P2000), Dog (D1000)) were adjusted with potassium phosphate buffer (pH 7.4) to 0.2 mg/mL in the reaction system. Then, 1% of the solution of a test substance prepared was added to the reaction system. Thereto was added an NADPH generating system (prepared according to the method of Non Patent Literature 28), and the metabolic reaction was initiated. At a designated time, 0.1% formic acid-acetonitrile/water (3:1) was added thereto, and the reaction was terminated.
as §3

Data set [5] is described as follows: Measurement of solubility (JP1, JP2, FaSSIF, FeSSIF). The format is physicochemical. The note with it: thermodynamic from solid, shaken 4 hours. As for the experimental part:
A 10 mM DMSO solution (10 μL) of test substance was added to a 96-well plate, and the mixture was concentrated and dried with a centrifugal evaporator (Genevac HT-4X). 200 μL of each solvent (JP1, JP2, FaSSIF, FeSSIF) (see Non Patent Literatures 29 and 30) was added to the well after evaporation. The mixture was shaken at room temperature at 2500 rpm for 4 hours. Then, the mixture was filtered in two parts with MultiScreen PCF filter (MERCK Millipore; MSSLBPC) to give samples (50 and 100 μL). 40 μL was collected from the sample obtained in the second filtration, and thereto was added acetonitrile (300 μL). After centrifugation (4000 g, 5 min.) of the mixture, a part of the supernatant was measured by LC-UV/MS (UPLC-Premier (waters)).

For data set [6], the system named is IL-17 production in plasmas. Kind of data set: IL-17 production in plasmas of antigen-sensitized mice. The format is in vivo, C57BL/6J mice. The note with it: for IL-17 concentration in plasma, % of control, 0.3 mg/kg: 0.3 mg/kg orally once daily for 7 days; for IL-17 concentration in plasma, % of control, 0.3 mg/kg / IL-17 concentration in plasma, % of control, 1 mg/kg: MOG/CFA/PTX-sensitized mice, blood at day 8, Normal 0%, Vehicle 100%; for IL-17 concentration in plasma, % of control, 1 mg/kg: 1 mg/kg orally once daily for 7 days; for ED50: Mus musculus, 168 h, oral once daily for 7 days, antigen-sensitized mice, calculated from the 0.3 and 1 mg/kg groups, read-out: ED50 (dose where the IL-17 concentration was decreased by 50%). How it is done: Effects of test substances on IL-17 production in plasmas were assessed in antigen-sensitized mice. Antigen sensitization was performed according to Non Patent Literature 31. Nine-week old female C57BL/6J mice (Japan Charles River K. K.) were used as a test animal.
An emulsion prepared by mixing 3 mg/mL of myelin oligodendrocyte glycoprotein (MOG; ANASPEC) and 4 mg/mL of complete Freund's adjuvant (CFA; Chondrex) in an equal ratio was administered subcutaneously to a mouse at the bilateral abdomens at a volume of 50 μL/site (day 1). 1 μg/mL of pertussis toxin (PTX; List Biological Laboratories) was administered intraperitoneally at a volume of 200 μL/head (day 1 and 3). Blood was collected at day 8.
Administration was performed once daily for 7 days after the administration of emulsion (day 1 to 7). 0.5% (w/v) methyl cellulose (MC) was administered orally at a volume of 10 mL/kg to Normal group (normal mice) and Vehicle group (antigen-sensitized mice), and 0.03 mg/mL or 0.1 mg/mL of a test substance suspended in 0.5% (w/v) MC was administered orally at a volume of 10 mL/kg to a compound-administered group.
Blood was separated by centrifugation, and then the IL-17 concentration in plasma was measured with Quantikine (Registered trade mark) Mouse IL-17 ELISA Kit (R&D systems, Inc.).
The IL-17 concentration of Normal group was deemed to be 0% and that of Vehicle group was deemed to be 100%. The IL-17 concentration percentage (% of control) of the compound-administered group was calculated from the following equation.
% of control=(a−b)/(c−b)×100
a: IL-17 concentration of the compound-administered group b: IL-17 concentration of the Normal group c: IL-17 concentration of the Vehicle group
Then, a dose of compound where the IL-17 concentration was decreased by 50% (ED50) was calculated from the following equation.
ED50=10^(log(A/B)×(50−D)/(C−D)+log(B); provided that ED50=B in the case D=50, and ED50>B in the case D>50 A: dosed amount of the lower dose group (i.e. 0.3 mg/kg) B: dosed amount of the higher dose group (i.e. 1 mg/kg) C: % of control at the lower dose group D: % of control at the higher dose group

Data set [7] in a line: Metabolic stability in liver microsomes, rat. The format is in vitro ADME. The note with it: residual ratio of unreacted substance, 0.2 mg/mL microsomes, NADPH generating system. As for the experimental part: as §4, §5, §3
The mark [8] stands for this setting: pH 1.2, simulated gastric fluid, JP1, room temperature, read-out: Solubility JP1.
Setting [9] is: pH 6.8, aqueous buffer, JP2, room temperature, read-out: Solubility JP2.
Where [10] appears, read: FaSSIF, room temperature, read-out: Solubility FaSSIF.
Setting [11] is: FeSSIF, room temperature, read-out: Solubility FeSSIF.

The values below come from US20210363110A1, “4-METHYLDIHYDROPYRIMIDINONE COMPOUNDS AND PHARMACEUTICAL USE THEREOF” (Japan Tobacco Inc., priority 2018, published 2021).

Converted amounts (≈) assume the structure as drawn. Read-outs that look alike come from different tables or passages of the source. Bounds are passed on as bounds.

As for `CC(C)C1=CN(C23CC(C(=O)O)(C2)C3)C(=O)N[C@@]1(C)c1ccc([C@@H]2C[C@H]2C(C)(C)C)c(Cl)c1` [Compound (1), 3-{(S)-4-[4-((1R,2R)-2-tert-Butyl-cyclopropyl)-3-chloro-phenyl]-5-isopropyl-4-methyl-2-oxo-3,4-dihydro-2H-pyrimidin-1-yl}bicyclo[1.1.1]pentane-1-carboxylic acid], in data set [1], the “Metabolic stability in hepatocytes at 240 min., Monkey” value is recorded as 83%. For the same molecule, in data set [2], the “Metabolic stability in hepatocytes at 240 min., Dog” value stood at 88%. Moreover, the “Metabolic stability in hepatocytes at 240 min., Rat” value in data set [3] came out at 90%. Moreover, in the data set on CYP3A4, the “Potential for induction of CYP3A4, 3 μM” value is on record as <10% and the “Potential for induction of CYP3A4, 10 μM” value is <10%. Besides, the “Potential for induction of CYP3A4, 30 μM” value with CYP3A4 (30 μM compound) is listed as <10%. The “Metabolic stability in liver microsomes at 60 min., Monkey” value in data set [4] is recorded as 93%. The solubility at 4 h in data set [5] (setting [8]) is < 0.8 µM. In addition, in data set [5] (setting [9]), the solubility at 4 h is 451 µM (≈ 212 µg/mL). For the same molecule, the solubility at 4 h in data set [5] (setting [10]) worked out at 470 µM (≈ 221 µg/mL). The solubility at 4 h in data set [5] (setting [11]) is ≥ 475 µM. Also, in data set [6], the “IL-17 concentration in plasma, % of control, 0.3 mg/kg” value is reported as 66 (=C) %; the “IL-17 concentration in plasma, % of control, 1 mg/kg” value is recorded as 24 (=D) %; the ED50 is 0.5 mg/kg. Moreover, in data set [7], the “Metabolic stability in liver microsomes at 60 min., Rat” value is 103%.
In the case of `CC[C@H](C)C1=CN(C23CC(C(=O)O)(C2)C3)C(=O)N[C@@]1(C)c1ccc([C@@H]2C[C@H]2C(C)(C)C)c(Cl)c1` [Compound (2), 3-{(S)-5-((S)-sec-Butyl)-4-[4-((1R,2R)-2-tert-butyl-cyclopropyl)-3-chloro-phenyl]-4-methyl-2-oxo-3,4-dihydro-2H-pyrimidin-1-yl}bicyclo[1.1.1]pentane-1-carboxylic acid], the “Metabolic stability in hepatocytes at 240 min., Monkey” value in data set [1] is on record as 85%. Also, in data set [2], the “Metabolic stability in hepatocytes at 240 min., Dog” value was 78%. Besides, the “Metabolic stability in hepatocytes at 240 min., Rat” value in data set [3] came out at 94%. Moreover, in the data set with CYP3A4, the “Potential for induction of CYP3A4, 3 μM” value was <10% and the “Potential for induction of CYP3A4, 10 μM” value was <10%. The “Metabolic stability in liver microsomes at 60 min., Monkey” value in data set [4] stood at 96%. Besides, the solubility at 4 h in data set [5] (setting [8]) is < 0.7 µM. For the same molecule, the solubility at 4 h in data set [5] (setting [9]) amounted to 447 µM (≈ 217 µg/mL). Besides, the solubility at 4 h in data set [5] (setting [10]) came out at 445 µM (≈ 216 µg/mL). Besides, the solubility at 4 h in data set [5] (setting [11]) was 463 µM (≈ 225 µg/mL). For the same molecule, in data set [6], the “IL-17 concentration in plasma, % of control, 0.3 mg/kg” value is 85 (=C) %; the “IL-17 concentration in plasma, % of control, 1 mg/kg” value was 54 (=D) %; the ED50 was > 1 mg/kg. Also, the “Metabolic stability in liver microsomes at 60 min., Rat” value in data set [7] turned out to be 95%.
